Reference: PubChem BioAssay (NCI)
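Grown in 96-well plates, cells were treated for 48 hours with each compound at five concentrations. Insufficient inhibition: endpoint recorded as highest concentration tested. TGI: total growth inhibition.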

What was measured:
Experiment in all cases: NCI-60 cell line screen, 48 h
[1] = system: NCI/ADR-RES ovarian
[2] = system: MDA-MB-435
[3] = system: OVCAR-3 ovarian
[4] = system: SN12C renal
[5] = system: SK-MEL-28 melanoma
[6] = system: ACHN renal
[7] = system: LOX IMVI melanoma
[8] = system: T-47D breast
[9] = system: A498 renal
[10] = system: SW-620 colon
[11] = system: IGROV1 ovarian
[12] = system: NCI-H23 lung
[13] = system: MOLT-4 leukemia
[14] = system: DU-145 prostate
[15] = system: UO-31 renal
[16] = system: U251 CNS
[17] = system: OVCAR-8 ovarian
[18] = system: SR leukemia
[19] = system: KM12 colon
[20] = system: RXF 393 renal
[21] = system: UACC-257 melanoma
[22] = system: A549 NSCLC
[23] = system: MCF7 breast
[24] = system: SF-539 CNS
[25] = system: K-562 leukemia
[26] = system: M14 melanoma
[27] = system: HOP-62 NSCLC
[28] = system: BT-549 breast
[29] = system: TK-10 renal
[30] = system: SNB-19 CNS
[31] = system: NCI-H226 lung
[32] = system: SNB-75 CNS
[33] = system: RPMI-8226 leukemia
[34] = system: CCRF-CEM leukemia
[35] = system: PC-3 prostate
[36] = system: CAKI-1 renal
[37] = system: SK-MEL-2 melanoma
[38] = system: COLO 205 colon
[39] = system: MDA-N
[40] = system: NCI-H460 lung
[41] = system: OVCAR-4 ovarian
[42] = system: HCT-116 colon
[43] = system: UACC-62 melanoma
[44] = system: SK-MEL-5 melanoma
[45] = system: SF-295 CNS
[46] = system: HOP-92 NSCLC
[47] = system: SK-OV-3 ovarian
[48] = system: MDA-MB-231 breast
[49] = system: OVCAR-5 ovarian
[50] = system: 786-0 renal
[51] = system: HT29 colon
[52] = system: SF-268 CNS
[53] = system: HCC-2998 colon
[54] = system: HCT-15 colon
[55] = system: EKVX NSCLC
[56] = system: NCI-H522 lung
[57] = system: HL-60(TB) leukemia

Q: With O=C1CC(O)c2c(Cl)sc(Cl)c21 (stereo unspecified) as the compound, how does the TGI [1] read?
A: 59.2 µM

Q: And the TGI [2]?
A: > 47.7 µM

Q: What about the TGI [3] of the same compound?
A: 12.9 µM

Q: What about the TGI [4] of the same compound?
A: > 48.6 µM

Q: What about the TGI [5] of the same compound?
A: 13.5 µM

Q: And the TGI [6]?
A: 26.2 µM

Q: And the TGI [7]?
A: 5.24 µM

Q: What about the TGI [8] of the same compound?
A: > 24.2 µM

Q: And the TGI [9]?
A: 42.6 µM

Q: What about the TGI [10] of the same compound?
A: 6.5 µM

Q: And the TGI [11]?
A: 22.1 µM

Q: What about the TGI [12] of the same compound?
A: 35.6 µM

Q: And the TGI [13]?
A: > 20.9 µM

Q: What about the TGI [14] of the same compound?
A: 54.8 µM

Q: And the TGI [15]?
A: 22.8 µM

Q: And the TGI [16]?
A: 20.2 µM

Q: And the TGI [17]?
A: 14.2 µM

Q: What about the TGI [18] of the same compound?
A: 20.7 µM

Q: What about the TGI [19] of the same compound?
A: > 22.7 µM

Q: And the TGI [20]?
A: 12.2 µM

Q: And the TGI [21]?
A: 27.7 µM

Q: And the TGI [22]?
A: 36.2 µM

Q: What about the TGI [23] of the same compound?
A: 30.5 µM

Q: And the TGI [24]?
A: 22.9 µM

Q: And the TGI [25]?
A: > 28.7 µM

Q: And the TGI [26]?
A: 32.7 µM

Q: What about the TGI [27] of the same compound?
A: 29.4 µM

Q: What about the TGI [28] of the same compound?
A: 29.7 µM

Q: What about the TGI [29] of the same compound?
A: 30.1 µM

Q: What about the TGI [30] of the same compound?
A: 40.2 µM

Q: And the TGI [31]?
A: 36.6 µM

Q: And the TGI [32]?
A: 29.5 µM

Q: And the TGI [33]?
A: 59.7 µM

Q: And the TGI [34]?
A: 4.68 µM

Q: And the TGI [35]?
A: 28.5 µM

Q: What about the TGI [36] of the same compound?
A: 9.68 µM

Q: And the TGI [37]?
A: 31.2 µM

Q: What about the TGI [38] of the same compound?
A: 14.6 µM

Q: And the TGI [39]?
A: 44.2 µM

Q: And the TGI [40]?
A: 52.3 µM

Q: What about the TGI [41] of the same compound?
A: 54.3 µM

Q: And the TGI [42]?
A: 13.8 µM

Q: What about the TGI [43] of the same compound?
A: 31.5 µM

Q: And the TGI [44]?
A: 43.5 µM

Q: What about the TGI [45] of the same compound?
A: > 59.3 µM

Q: And the TGI [46]?
A: 7.89 µM

Q: What about the TGI [47] of the same compound?
A: > 100 µM

Q: What about the TGI [48] of the same compound?
A: > 61.3 µM

Q: And the TGI [49]?
A: 33 µM

Q: And the TGI [50]?
A: 11.2 µM

Q: What about the TGI [51] of the same compound?
A: 10 µM

Q: And the TGI [52]?
A: 17.8 µM

Q: What about the TGI [53] of the same compound?
A: 46.3 µM

Q: What about the TGI [54] of the same compound?
A: 11.3 µM

Q: And the TGI [55]?
A: 37.2 µM

Q: Which TGI [2] does the source give for O=C(CCCC(=O)N1CC(CCl)c2ccc([N+](=O)[O-])cc21)N1CC(CCl)c2ccc([N+](=O)[O-])cc21 (stereo unspecified) here?
A: > 100 µM

Q: What about the TGI [3] of the same compound?
A: > 100 µM

Q: And the TGI [4]?
A: > 100 µM

Q: What about the TGI [5] of the same compound?
A: > 100 µM

Q: And the TGI [6]?
A: > 100 µM

Q: What about the TGI [7] of the same compound?
A: > 100 µM

Q: And the TGI [8]?
A: > 100 µM

Q: And the TGI [9]?
A: > 100 µM

Q: What about the TGI [10] of the same compound?
A: > 100 µM

Q: And the TGI [12]?
A: > 100 µM

Q: What about the TGI [13] of the same compound?
A: > 100 µM

Q: And the TGI [14]?
A: > 100 µM

Q: What about the TGI [15] of the same compound?
A: > 100 µM

Q: What about the TGI [16] of the same compound?
A: > 100 µM

Q: What about the TGI [18] of the same compound?
A: 60.5 µM

Q: What about the TGI [20] of the same compound?
A: > 100 µM

Q: And the TGI [21]?
A: > 100 µM

Q: What about the TGI [22] of the same compound?
A: 92.4 µM

Q: What about the TGI [23] of the same compound?
A: > 100 µM

Q: What about the TGI [56] of the same compound?
A: > 100 µM

Q: And the TGI [24]?
A: > 100 µM

Q: And the TGI [25]?
A: > 100 µM

Q: And the TGI [26]?
A: > 100 µM

Q: What about the TGI [27] of the same compound?
A: > 100 µM

Q: What about the TGI [28] of the same compound?
A: > 100 µM

Q: And the TGI [29]?
A: > 100 µM

Q: And the TGI [30]?
A: > 100 µM

Q: And the TGI [31]?
A: > 100 µM

Q: What about the TGI [33] of the same compound?
A: > 100 µM

Q: And the TGI [57]?
A: > 100 µM

Q: What about the TGI [34] of the same compound?
A: > 100 µM

Q: What about the TGI [35] of the same compound?
A: > 100 µM

Q: And the TGI [36]?
A: > 100 µM

Q: What about the TGI [37] of the same compound?
A: > 100 µM

Q: And the TGI [38]?
A: > 100 µM

Q: And the TGI [39]?
A: > 100 µM

Q: What about the TGI [40] of the same compound?
A: > 100 µM

Q: And the TGI [41]?
A: > 100 µM

Q: What about the TGI [42] of the same compound?
A: > 100 µM

Q: What about the TGI [43] of the same compound?
A: > 100 µM

Q: And the TGI [44]?
A: > 100 µM

Q: What about the TGI [45] of the same compound?
A: > 100 µM

Q: And the TGI [46]?
A: > 100 µM

Q: And the TGI [47]?
A: > 100 µM

Q: And the TGI [48]?
A: > 100 µM

Q: What about the TGI [49] of the same compound?
A: > 100 µM

Q: What about the TGI [50] of the same compound?
A: > 100 µM

Q: And the TGI [51]?
A: > 100 µM

Q: And the TGI [52]?
A: > 100 µM

Q: What about the TGI [53] of the same compound?
A: > 100 µM

Q: What about the TGI [54] of the same compound?
A: > 100 µM
